As usually defined, the TGI is the concentration at which net growth stops. Read a low TGI as greater sensitivity of the cells.

Test systems include SF-268 CNS; NCI-H23 lung; SNB-19 CNS; NCI-H460 lung; EKVX NSCLC; M14 melanoma; DU-145 prostate; MALME-3M melanoma; ACHN renal; NCI/ADR-RES ovarian; RPMI-8226 leukemia; PC-3 prostate.
What all share (assay): DTP human tumour cell line panel, 48 h

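These data come from cells grown in 96-well plates and exposed to compound for 48 hours at five concentrations. TGI is the concentration that stops growth completely.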 A value given as a limit tells only on which side of the number the result lay.

Regarding `c1ccc(C2CC(N3CCOCC3)=Nc3ccccc3N2)cc1` (centres undefined), the TGI in the experiment with SF-268 CNS, in the experiment with NCI-H23 lung, in the experiment on SNB-19 CNS, in the experiment on NCI-H460 lung, in the experiment with EKVX NSCLC and in the experiment on M14 melanoma was > 100 µM in each case. The TGI in the experiment with DU-145 prostate, in the experiment with MALME-3M melanoma, in the experiment with ACHN renal, in the experiment with NCI/ADR-RES ovarian, in the experiment on RPMI-8226 leukemia and in the experiment on PC-3 prostate was > 100 µM in each case.

Turning to `COC(=O)C(Cc1ccccc1)NS(=O)(=O)c1ccc(-c2c3nc(c(-c4ccc(S(=O)(=O)NC(Cc5ccccc5)C(=O)OC)cc4)c4ccc([nH]4)c(-c4ccc(S(=O)(=O)NC(Cc5ccccc5)C(=O)OC)cc4)c4nc(c(-c5ccc(S(=O)(=O)NC(Cc6ccccc6)C(=O)OC)cc5)c5ccc2[nH]5)C=C4)C=C3)cc1` (centres undefined), the TGI in the experiment on SF-268 CNS, with NCI-H23 lung, in the experiment on SNB-19 CNS, in the experiment with NCI-H460 lung, with EKVX NSCLC and in the experiment with M14 melanoma was > 100 µM in each case. Also, the TGI in the experiment with DU-145 prostate, in the experiment on MALME-3M melanoma, in the experiment with ACHN renal, in the experiment with NCI/ADR-RES ovarian, with RPMI-8226 leukemia and in the experiment with PC-3 prostate was > 100 µM each time.

Take `COC(=O)c1ccccc1CC1Cc2cc3c(cc2C1)CCC3`: the TGI in the experiment on SF-268 CNS was > 100 µM; in the experiment on NCI-H23 lung, > 100 µM; with SNB-19 CNS, > 100 µM; in the experiment on NCI-H460 lung, > 100 µM; with EKVX NSCLC, > 100 µM; in the experiment with M14 melanoma, 93.4 µM. Also, the TGI in the experiment with DU-145 prostate was > 100 µM; with MALME-3M melanoma, 52 µM; in the experiment on ACHN renal, > 100 µM; with NCI/ADR-RES ovarian, > 100 µM; with RPMI-8226 leukemia, 40.1 µM; in the experiment on PC-3 prostate, > 100 µM.

With `OC[C@H]1CC(c2nn[nH]n2)[C@H](O)[C@@H]1O` (some centres undefined), the TGI with SF-268 CNS, with NCI-H23 lung, with SNB-19 CNS, in the experiment with NCI-H460 lung, in the experiment with M14 melanoma and with DU-145 prostate was > 100 µM each time. In addition, the TGI in the experiment on MALME-3M melanoma, in the experiment on ACHN renal, with NCI/ADR-RES ovarian, in the experiment on RPMI-8226 leukemia and with PC-3 prostate was > 100 µM in each case.

For the compound `CC(O[Si](C)(C)C(C)(C)C)[C@H](NC(=O)OCC(Cl)(Cl)Cl)C(=O)O` (some centres undefined), the TGI in the experiment with SF-268 CNS, in the experiment with NCI-H23 lung, in the experiment with SNB-19 CNS, in the experiment with NCI-H460 lung, in the experiment on EKVX NSCLC and in the experiment with DU-145 prostate was > 100 µM throughout. Moreover, the TGI with MALME-3M melanoma, in the experiment with ACHN renal, in the experiment on NCI/ADR-RES ovarian, in the experiment on RPMI-8226 leukemia and in the experiment with PC-3 prostate was > 100 µM throughout.

As for `Cn1cc(-c2ccc(CCOC3CCCCO3)cc2)c2c(C#N)cccc21` (centres undefined), the TGI in the experiment with SF-268 CNS, in the experiment with NCI-H23 lung, with SNB-19 CNS, in the experiment on NCI-H460 lung, in the experiment on EKVX NSCLC and in the experiment with M14 melanoma was > 100 µM each time. In addition, the TGI in the experiment on DU-145 prostate, in the experiment on MALME-3M melanoma, in the experiment with NCI/ADR-RES ovarian, in the experiment on RPMI-8226 leukemia and with PC-3 prostate was > 100 µM each time.

For `CC(C)C1OCC(CO)CO1` (centres undefined), the TGI with SF-268 CNS, with NCI-H23 lung, in the experiment with SNB-19 CNS, with NCI-H460 lung, with EKVX NSCLC and in the experiment on M14 melanoma was > 100 µM throughout. The TGI with DU-145 prostate, in the experiment on MALME-3M melanoma, in the experiment on ACHN renal, with NCI/ADR-RES ovarian, in the experiment with RPMI-8226 leukemia and with PC-3 prostate was > 100 µM each time.

For `COc1cc2c[n+](C)c3c4ccccc4ccc3c2cc1OC`, the TGI was 6.77 µM in the experiment on SF-268 CNS; 14.1 µM in the experiment on NCI-H23 lung; 33.6 µM in the experiment with SNB-19 CNS; > 51.2 µM in the experiment with NCI-H460 lung; > 48.2 µM in the experiment on EKVX NSCLC; 42.6 µM in the experiment on M14 melanoma. For the same compound, the TGI in the experiment on DU-145 prostate was 14 µM; in the experiment on MALME-3M melanoma it was 5.53 µM; in the experiment with ACHN renal, > 100 µM; in the experiment on NCI/ADR-RES ovarian it was > 100 µM; in the experiment on RPMI-8226 leukemia, 10.1 µM; with PC-3 prostate, > 43.2 µM.

Consider `Cc1cc(S(=O)(=O)Nc2nc(N)n(C)n2)c(S)cc1Cl`, for which the TGI in the experiment with SF-268 CNS, with NCI-H23 lung, in the experiment on SNB-19 CNS, in the experiment on NCI-H460 lung, in the experiment on EKVX NSCLC and in the experiment with M14 melanoma was > 10 µM each time. For the same compound, the TGI with DU-145 prostate, in the experiment with MALME-3M melanoma, in the experiment with ACHN renal, in the experiment on NCI/ADR-RES ovarian, with RPMI-8226 leukemia and in the experiment on PC-3 prostate was > 10 µM each time.

With `Nc1nc(Cl)c2ncn(Cc3ccccc3CCl)c2n1`, the TGI in the experiment with SF-268 CNS came to 14.5 µM; in the experiment with NCI-H23 lung, 8.84 µM; with SNB-19 CNS, 27.5 µM; in the experiment on NCI-H460 lung it was 36.8 µM; in the experiment on EKVX NSCLC it was 31.1 µM; in the experiment with M14 melanoma it was 40.1 µM. For the same compound, the TGI was 32.3 µM in the experiment on DU-145 prostate; 10.2 µM with MALME-3M melanoma; 22 µM in the experiment on ACHN renal; 34.6 µM with NCI/ADR-RES ovarian; > 100 µM in the experiment with RPMI-8226 leukemia; 68.1 µM in the experiment with PC-3 prostate.

Consider `O=[N+]([O-])c1cc(Cl)ccc1S(=O)(=O)c1ccccc1`, for which the TGI with SF-268 CNS, in the experiment on NCI-H23 lung, in the experiment with SNB-19 CNS, in the experiment with NCI-H460 lung, in the experiment on EKVX NSCLC and in the experiment on M14 melanoma was > 100 µM in each case. In addition, the TGI in the experiment on DU-145 prostate, with MALME-3M melanoma, with ACHN renal, in the experiment with NCI/ADR-RES ovarian, in the experiment with RPMI-8226 leukemia and in the experiment with PC-3 prostate was > 100 µM in each case.

The values are drawn from PubChem BioAssay (NCI).
